From US20040043992A1, “Meloxicam for alleviating organ injury during organ operation or transplantation” (Boehringer Ingelheim International GmbH, priority 2002, published 2004)
Read-outs that look alike come from different tables or passages of the source. Square brackets hold non-standard residues; d marks the D form. Peptide text beside a SMILES is read from it. Nle = CCCC[C@H](N)C(=O)O

What was measured:
[1] = system: livers of NHBDs (Non Heart Beating Donors); assay: ischemic in vitro preservation and reperfusion of livers of Non Heart Beating Donors; parameters: species or system Wistar rat; conditions: meloxicam 4.6 mg/kg body weight added to HTK solution; 60 minutes warm ischemia, 24 hours at 4° C., 45 minutes of reperfusion
Description: A previous (unpublished) study was been performed by the inventors on the ischemic in vitro preservation of livers of NHBDs (Non Heart Beating Donors). The aim of this study was to test the ability of meloxicam to ameliorate the ischemia/reperfusion injury of these livers. The experiments were performed using a Wistar rat model. Cardiac arrest was induced in Wistar rats under anesthesia by phrenotomy. The livers were excised after 60 minutes of warm ischemia, flushed with 20 mL of Ringer's solution containing heparin and subsequently with 60 mL of Histidine-Tryptophane-Cetoglutarate (or HTK) solution and preserved for 24 hours at 4° C. In half of the experiments, meloxicam (4.6 mg/kg body weight) was added to the HTK solution. Reperfusion was carried out in vitro (3 mL/g/min) with oxygenated buffer at 37° C. After 45 minutes of reperfusion, portal venous pressure (PVP) was measured to evaluate vascular conductivity, the enzyme release of alanine aminotransferase (ALT) and […] (GLDH) was measured as indicator of hepatocellular injury, and the bile production and oxygen consumption (VO2) as parameter of functional recovery of the livers. To estimate the impact of oxygen free radicals, the production of malondialdehyde was measured in the hepatic effluent.

[2] = system: ischemia/reperfusion injury of the liver; assay: in vivo warm ischemia (Pringle's maneuver) and reperfusion of the liver in rats; parameters: species or system male Wistar rats; conditions: for Creatinine / GPT / LDH / TNF-alpha: 30 minutes warm ischemia of the liver, 60 minutes of reperfusion, GdCl3 10 mg/kg 24 hours prior
Description: In the following experiment, the ability of an in vivo treatment with meloxicam to reduce ischemia/reperfusion injury of the liver was assessed.
For this purpose, male Wistar rats (250 g to 280 g body weight) were anesthetized with intraperitoneal application of pentobarbital (50 mg/kg body weight) and atropine (0.05 mg). All animals were subjected to a 30 minutes warm ischemia of the liver (Pringle's maneuver) and 60 minutes of reperfusion after median lapatomtomy.
One group of animals received no additional treatment (Control group). Another group was given 1 mg/kg body weight meloxicam just prior to the operation (COX-2I group). A third group was given 10 mg/kg body weight gadolinium chloride (GdCl3) 24 hours prior to the operation (GdCl3 group). A fourth group was given 10 mg/kg body weight gadolinium chloride 24 hours prior to operation and 1 mg/kg body weight meloxicam just prior to the operation (GdCl3+COX-2I group). Gadolinium chloride provides for a selective depletion of the liver Kupffer cells.
To assess and compare the level of injury in all groups of animals, a measurement of the enzyme release of glutamate pyruvate transaminase (GPT) and lactate dehydrogenase (LDH) was measured as indicator of hepatocellular injury, and the release of creatinine and TNF-alpha as an indicator of inflammation. To quantify the cellular damage on a structural level, histochemistry was performed with HE staining as well as immunohistochemistry using the TUNEL assay to quantify the apoptotic changes of the livers.

[3] = system: warm ischemia/reperfusion injury (hepatic parenchymal injury); conditions: pre- and post-ischemic administration; serum ALT, AST, LDH, HA; cited from earlier work
[4] = system: liver injuries after Pringle's maneuver; conditions: cited from earlier work; for number of polymorphonuclear neutrophils, lower than in untreated animals: 1 mg/kg
[5] = system: injury associated with ischemia/reperfusion of the brain, liver, kidney, lung, intestine, heart, and pancreas; conditions: administered 30 minutes prior to an hemorrhagic shock; cited from earlier work
[6] = system: ischemia/reperfusion injury during organ operation or transplantation; conditions: in vivo; cited from earlier work
[7] = meloxicam 1 mg/kg just prior to operation
[8] = 1 mg/kg via the portal vein, 60 minutes warm ischemia

Compound: Cc1cnc(NC(=O)C2=C(O)c3ccccc3S(=O)(=O)N2C)s1 [COX-2I, 4-hydroxy-2-methyl-N-(5-methyl-2-thiazolyl)-2H-1,2-benzothiazine-3-carboxamide-1,1-dioxide]
- in vitro preservation of grafts from NHBDs [1]: improves the in vitro preservation of grafts from NHBDs
- production of free oxygen radicals during reperfusion (malondialdehyde in hepatic effluent) [1]: decreased the production of free oxygen radicals during reperfusion
- Creatinine [2, 7]: 0.65 mg/dL
- GPT [2, 7]: 973 Units/liter
- LDH [2, 7]: 6765 Units/liter
- TNF-alpha [2, 7]: 3.5 pg/mL serum
- lower level of GPT compared to the untreated Control group [2, 7]: 3 times
- lower level of LDH compared to the untreated Control group [2, 7]: 4 times
- lower level of TNF-alpha compared to the untreated Control group [2, 7]: 5 times
- lower level of creatinine compared to the untreated Control group [2, 7]: 2 times
- necrotic and apoptotic changes of the liver (HE staining, TUNEL assay) ([2]; meloxicam treated groups, histochemistry): less necrotic as well as less apoptotic changes
- reduction of infiltration of MPO (myloperoxidase) positive cells into the liver after I/R ([2]; myeloperoxidase reaction (Hanker-Yates solution)): ~50%

Compound: CC(=O)c1ccc(NS(C)(=O)=O)c(Oc2ccc(F)cc2F)c1 [FK3311, 4′-acetyl-2′-(2,4-difluorophenoxy)methanesulfonanilide]
- protection against warm ischemia/reperfusion injury [3]: satisfactory protection
- level of serum enzyme activity (GOT, GPT, LDH) relative to untreated animals [4, 8]: about half
- time after reperfusion by which blood flow recovered to the pre-ischemic level [4, 8]: ≤ 30 min
- number of polymorphonuclear neutrophils, lower than in untreated animals ([4]; 1 hour after reperfusion): about 40%
- number of polymorphonuclear neutrophils, lower than in untreated animals ([4]; 6 hours after reperfusion): about 25%

Compound: [Cl][Gd]([Cl])[Cl] [GdCl3, gadolinium chloride]
- Creatinine [2, 7]: 0.94 mg/dL
- GPT [2, 7]: 1611 Units/liter
- LDH [2, 7]: 12100 Units/liter
- TNF-alpha [2, 7]: 8.05 pg/mL serum

Compound: CC(=N)NCCCC[C@H](N)C(=O)O.Cl.Cl [LNIL, L-N^6-(L-iminoethyl)lysine dihydrochloride]
- injury associated with ischemia/reperfusion of organs [5]: may also contribute to a protective effect

Compound: CC(=O)Oc1ccccc1C(=O)O [aspirin]
- reduction of ischemia/reperfusion injury during organ operation or transplantation [6]: did not significantly reduce

Compound: CCCC[C@@H](C=O)NC(=O)[C@H](CC(C)C)NC(=O)[C@H](CC(C)C)NC(C)=O [calpain inhibitor I] (Ac-Leu-Leu-[Nle]-aldehyde)
- injury associated with ischemia/reperfusion of organs [5]: reduces the injury

Compound: COc1ccc2c(c1)c(CC(=O)O)c(C)n2C(=O)c1ccc(Cl)cc1 [indomethacin]
- reduction of ischemia/reperfusion injury during organ operation or transplantation [6]: did not significantly reduce
